Reference: US6410544B1, “Cholinergic agents in the treatment of presbyopia” (Allergan Sales, Inc., priority 1998, dated 2002)
Entries after “also recorded” stand apart in the source; their conditions may differ.

Assays:
pupil size = assay: Observation of pupil size in the refractometry study; assay type: in vivo, human; details: after one topical drop, myopic and hyperopic presbyope
[1] = system: eye of a presbyopic myope; assay: Hartinger refractometry at distance and near after one topical drop, myopic presbyope; assay type: in vivo, human; details: for Mean Refraction, Near OS: +1.50 sphere in the right eye for near fixation; for Mean Refraction, Near OD: +1.75 sphere in the left eye for near fixation
Procedure: (§1) This clinical study was designed to evaluate the effect of a low dose muscarinic agent such as Pilocarpine from 0.001% to less than 2% by weight values on the refractive status of the eye.
(§2) One drop of Pilocarpine 0.3% was administered topically to the eye of a presbyopic myope and hyperope, before and after Hartinger Refractometry at distance and near was performed by the same observer.
(§3) Refraction at distance and near was performed with the Hartinger Refractomer by the same observer prior to installation of Pilcarpine 0.3%. Three measurements were taken at distance and at near for each eye tested at each timepoint.
(§4) In the myopic presbyope, both eyes received Piolcarpine 0.3%. In the hyperopic presbyope, only the right eye received Pilocarpine 0.3%.
(§5) At approximately 30-50 and 60-90 minutes post installation of Pilocarpine, refraction measurements were repeated.

[2] = system: eye of a presbyopic hyperope; assay: Hartinger refractometry at distance and near after one topical drop, hyperopic presbyope; assay type: in vivo, human
Procedure: as §1, §2, §3, §4, §5

[3] = system: eye of a human adult with presbyopia; assay: Eye drop formulation given to a human adult with presbyopia; assay type: in vivo; details: 0.1% weight/volume in base solution pH 6.4, human adult with presbyopia
Procedure: In a specific example of this invention, a base solution can be formulated as follows: Sodium Chloride 0.3%; Edetate Disodium 0.1%; Boric Acid 1.0%; Benzaliconium Chloride 0.01% Sodium Hydroxide (adjust to pH 6.4) and Water. Pilocarpine, at a concentration of 0.1% weight/volume, is added to the base solution. The above formulation is administered to the eye of a human adult with presbyopia, shown by their discomfort when reading, or their inability to read fine print.

[4] = system: eye of a presbyopic myope; assay: Hartinger refractometry at distance and near after one topical drop, myopic presbyope; assay type: in vivo, human; details: single measurements, time point printed '30 min, 3:45 pm'

CC[C@@H]1C(=O)OC[C@@H]1Cc1cncn1C [Pilocarpine 0.3%, Pilocarpine]
change in pupil size (pupil size): no notable change in pupil size; also recorded: no observable effect on pupil size
change in distance and near myopic correction ([1]; 30 and 60 minutes post dosing): small but definite decrease in the distance and near myopic correction which was greater at 60 than 30 minutes post dosing
Mean Refraction, Distance OD ([1]; 30 min post instillation): −1.06 diopters
Mean Refraction, Near OS ([1]; 30 min post instillation): −1.53 diopters
Mean Refraction, Near OD ([1]; 30 min post instillation): −1.8 diopters
Mean Refraction, Distance OD ([1]; 60 min post instillation): −1.05 diopters
Mean Refraction, Distance OS ([1]; 60 min post instillation): −1.25 diopters
Mean Refraction, Near OS ([1]; 60 min post instillation): −0.95 diopters
Mean Refraction, Near OD ([1]; 60 min post instillation): −1.5 diopters
Mean Refraction, Distance OD ([2]; 50 min post instillation): +1.15 diopters
Mean Refraction, Near OD ([2]; 50 min post instillation, +2.5 sphere in the left eye for near fixation): +0.17 diopters
Mean Refraction, Distance OD ([2]; 90 min post instillation): +0.42 diopters
Mean Refraction, Near OD ([2]; 90 min post instillation, +2.50 sphere in the left eye for near fixation): +0.38 diopters
change in distance and near hyperopic correction ([2]; 90 minutes post dosing): small but definite decrease in the distance and near hyperopic correction
vision after administration of the eye drops [3]: Vision is improved
Refraction, Distance OS [4]: −1.25 diopters
Refraction, Near OD [4]: −1.5 diopters
